{"source": "paper PMC7139822", "about": "“Flumazenil-Insensitive Benzodiazepine Effects in Recombinant αβ and Neuronal GABAA Receptors” (Brain Sciences, 2020)", "target": "T1, α1β2 receptor (Rattus norvegicus, UniProt P62813+P63138)", "T1 construct": "gene Gabra1; full-length rat subunit cDNAs by RT-PCR from brain mRNA; α in pcDNA3.1(+), β in pIRES2-EGFP (EGFP separate via IRES); HEK293; α:β cDNA 1:1, said to favor 2α:3β pentamer", "T1 sequence (P62813 28-455)": "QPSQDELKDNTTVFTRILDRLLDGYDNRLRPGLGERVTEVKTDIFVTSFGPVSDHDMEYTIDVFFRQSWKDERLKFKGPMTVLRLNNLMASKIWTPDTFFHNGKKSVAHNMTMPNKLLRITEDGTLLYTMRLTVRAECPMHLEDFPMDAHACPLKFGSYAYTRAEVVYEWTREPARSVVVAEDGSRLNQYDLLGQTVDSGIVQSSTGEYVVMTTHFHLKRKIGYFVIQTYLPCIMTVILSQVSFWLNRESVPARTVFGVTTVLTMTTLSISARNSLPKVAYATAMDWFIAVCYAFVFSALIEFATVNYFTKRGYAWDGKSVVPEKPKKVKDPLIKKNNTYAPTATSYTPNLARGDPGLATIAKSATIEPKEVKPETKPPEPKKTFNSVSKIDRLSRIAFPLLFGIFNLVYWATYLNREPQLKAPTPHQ", "T1 sequence (P63138 26-474)": "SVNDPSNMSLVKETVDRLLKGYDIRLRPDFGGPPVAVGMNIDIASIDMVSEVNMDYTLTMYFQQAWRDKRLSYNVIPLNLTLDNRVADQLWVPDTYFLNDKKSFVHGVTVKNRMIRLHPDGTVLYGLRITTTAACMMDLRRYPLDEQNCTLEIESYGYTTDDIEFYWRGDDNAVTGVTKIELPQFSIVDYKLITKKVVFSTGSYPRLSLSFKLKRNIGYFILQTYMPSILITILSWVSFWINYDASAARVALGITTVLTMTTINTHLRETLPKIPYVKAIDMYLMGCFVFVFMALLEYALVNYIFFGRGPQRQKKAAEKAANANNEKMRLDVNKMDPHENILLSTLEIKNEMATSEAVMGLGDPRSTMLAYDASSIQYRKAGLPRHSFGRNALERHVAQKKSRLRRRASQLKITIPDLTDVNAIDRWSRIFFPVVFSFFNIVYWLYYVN", "assay": "whole-cell patch clamp, HEK293", "format": "cell-based", "details": "200 µM; positive allosteric modulator, non-classical site; co-applied with 0.1 μmol/L GABA; −60 mV; pH 7.4", "source_text": "whole-cell patch clamp, HEK293 on α1β2 receptor"}
{"smiles": "Cc1ncc2n1-c1ccc(Cl)cc1C(c1ccccc1F)=NC2", "note": "[Midazolam]", "values": [{"measurement": "Potentiation of GABA Currents (%) / (Midazolam)", "result": "171.8 ± 13.8", "unit": "%"}]}
